Laboratory results: ChEMBL document CHEMBL1201862, “PubChem BioAssay data set” (2004)
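Following 48 hours of exposure in 96-well plates, responses at five concentrations were used to interpolate endpoints linearly. Abbreviation: GI50, concentration required for 50% inhibition of growth.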 Active and inactive are the calls of the source. No stated cut-off is given here; in the data, active = GI50 up to about 1.1 µM and inactive = higher.

Experiments:
Experiment in all cases: NCI-60 cell line screen, 48 h
A549 = test system: A549
HL-60 = test system: HL-60
UACC-257 = test system: UACC-257
SK-OV-3 = test system: SK-OV-3
SN12C = test system: SN12C
HT-29 = test system: HT-29
NCI-H226 = test system: NCI-H226
SNB-75 = test system: SNB-75
K562 = test system: K562
MOLT-4 = test system: MOLT-4
HCT-15 = test system: HCT-15
U-251 = test system: U-251
SF-295 = test system: SF-295
HOP-92 = test system: HOP-92
SK-MEL-2 = test system: SK-MEL-2
M14 = test system: M14
MDA-N = test system: MDA-N
HCC 2998 = test system: HCC 2998
SR = test system: SR
MCF7 = test system: MCF7

SMILES | GI50 (A549) | GI50 (HL-60) | GI50 (UACC-257) | GI50 (SK-OV-3) | GI50 (SN12C) | GI50 (HT-29) | GI50 (NCI-H226) | GI50 (SNB-75) | GI50 (K562) | GI50 (MOLT-4) | GI50 (HCT-15) [µM] | GI50 (U-251) | GI50 (SF-295) | GI50 (HOP-92) | GI50 (SK-MEL-2) | GI50 (M14) | GI50 (MDA-N) | GI50 (HCC 2998) | GI50 (SR) | GI50 (MCF7)
CN1C2CCC1CN(CCOC(c1ccc(F)cc1)c1ccc(F)cc1)C2 | 65 µM (inactive) | 12.6 µM (inactive) | 19.1 µM (inactive) | 42.3 µM (inactive) | 47.9 µM (inactive) | 19.5 µM (inactive) | 32.3 µM (inactive) | 26.5 µM (inactive) | 20 µM (inactive) | 23.6 µM (inactive) | 32.9 | 26.1 µM (inactive) | 19.1 µM (inactive) | 21.4 µM (inactive) | 23.8 µM (inactive) | 20.1 µM (inactive) | 36 µM (inactive) | – | – | –
C[C@]12CC[C@H]3[C@@H](CC[C@]4(O)C[C@@H](O)CC[C@]34CO)[C@@]1(O)CC[C@@H]2C1=CC(=O)OC1 [STROPHANTHIDOL] | 0.453 µM (active) | 1.64 µM (inactive) | 2.99 µM (inactive) | 2.64 µM (inactive) | 3.47 µM (inactive) | 1.94 µM (inactive) | 4.03 µM (inactive) | 4.02 µM (inactive) | 2.21 µM (inactive) | 0.225 µM (active) | 2 | 2.7 µM (inactive) | 1.21 µM (inactive) | 2.78 µM (inactive) | 2.5 µM (inactive) | 3.01 µM (inactive) | 2.99 µM (inactive) | 22.9 µM (inactive) | 0.861 µM (active) | –
CCOC(OCC)C(CC)[Se]c1ccccc1[N+](=O)[O-] (centres undefined) | 4.79 µM (inactive) | 0.418 µM (active) | 8.83 µM (inactive) | 2.31 µM (inactive) | 7.94 µM (inactive) | 2.39 µM (inactive) | 7.96 µM (inactive) | 3.45 µM (inactive) | 1.93 µM (inactive) | 2.9 µM (inactive) | 1.57 | 2.51 µM (inactive) | 2.32 µM (inactive) | > 22.2 µM (inactive) | 6.34 µM (inactive) | 1.63 µM (inactive) | 0.352 µM (active) | 1.56 µM (inactive) | 0.593 µM (active) | –
C#CC(O)(c1nc2ccccc2s1)c1nc2ccccc2s1 | 29 µM (inactive) | 21 µM (inactive) | 25.1 µM (inactive) | – | 17.8 µM (inactive) | 27.2 µM (inactive) | – | – | 45.7 µM (inactive) | 28.8 µM (inactive) | 20.2 | 18.7 µM (inactive) | 24 µM (inactive) | 16.1 µM (inactive) | 16.7 µM (inactive) | 15.5 µM (inactive) | 21.2 µM (inactive) | – | – | 22.2 µM (inactive)
CN1C(=S)C(c2ccccc2)Sc2ccccc21 (centres undefined) | 84.3 µM (inactive) | 87.5 µM (inactive) | 30.8 µM (inactive) | 42.8 µM (inactive) | > 100 µM (inactive) | > 10 µM (inactive) | 90.6 µM (inactive) | 35.7 µM (inactive) | 20.7 µM (inactive) | 7.29 µM (inactive) | 52.1 | > 100 µM (inactive) | 17.4 µM (inactive) | – | – | > 100 µM (inactive) | 77.8 µM (inactive) | – | 64.4 µM (inactive) | 48.8 µM (inactive)
CC(C)[C@H]1NC(=O)[C@H]2N=C(O[C@@H]2C)[C@@H]2CCCN2C(=O)[C@H](Cc2ccccc2)NC(=O)[C@@H]2COC(=N2)[C@@H](Cc2ccccc2)NC(=O)[C@@H]2COC1=N2 | > 100 µM (inactive) | > 100 µM (inactive) | > 100 µM (inactive) | > 100 µM (inactive) | > 100 µM (inactive) | > 100 µM (inactive) | > 100 µM (inactive) | 0.428 µM (active) | > 100 µM (inactive) | > 100 µM (inactive) | > 100 | > 100 µM (inactive) | > 100 µM (inactive) | – | > 100 µM (inactive) | > 100 µM (inactive) | > 100 µM (inactive) | > 100 µM (inactive) | – | > 100 µM (inactive)
C1=C(c2ccccc2)SC=C(c2ccccc2)S1 | 32.1 µM (inactive) | 65.9 µM (inactive) | 57.7 µM (inactive) | 27.5 µM (inactive) | 29.9 µM (inactive) | 24.9 µM (inactive) | 29 µM (inactive) | 1.68 µM (inactive) | 21 µM (inactive) | 25.3 µM (inactive) | 26.2 | 38.4 µM (inactive) | 29.2 µM (inactive) | 17.1 µM (inactive) | – | 39.8 µM (inactive) | 6.17 µM (inactive) | – | – | 16.9 µM (inactive)
CC[C@@H]1CN2CCC1C[C@@H]2C(O)c1ccnc2ccc(OCCN3CCN(CCOc4ccc5nccc(C(O)[C@@H]6C[C@@H]7CCN6C[C@@H]7CC)c5c4)CC3)cc12 (some centres undefined) | 15.3 µM (inactive) | 21.9 µM (inactive) | 16.1 µM (inactive) | 18.3 µM (inactive) | 14.3 µM (inactive) | 15.7 µM (inactive) | – | – | 2.63 µM (inactive) | 6.53 µM (inactive) | 24.2 | 16.7 µM (inactive) | 16.3 µM (inactive) | 8.81 µM (inactive) | 19.9 µM (inactive) | 12.8 µM (inactive) | 12.9 µM (inactive) | 9.48 µM (inactive) | – | 15.5 µM (inactive)
O=C(O)c1ccc(N/C(=C(/C(Cl)=C(Cl)Cl)[N+](=O)[O-])n2nnc3ccccc32)cc1 | > 100 µM (inactive) | – | > 100 µM (inactive) | > 100 µM (inactive) | > 100 µM (inactive) | > 100 µM (inactive) | > 100 µM (inactive) | – | > 100 µM (inactive) | > 100 µM (inactive) | > 100 | > 100 µM (inactive) | > 100 µM (inactive) | – | > 100 µM (inactive) | > 100 µM (inactive) | > 100 µM (inactive) | > 100 µM (inactive) | – | > 100 µM (inactive)
O=C(O)CCSc1ncnc2[nH]cnc12 | > 100 µM (inactive) | > 100 µM (inactive) | > 100 µM (inactive) | > 100 µM (inactive) | > 100 µM (inactive) | > 100 µM (inactive) | 64.7 µM (inactive) | – | > 100 µM (inactive) | > 100 µM (inactive) | > 100 | > 100 µM (inactive) | > 100 µM (inactive) | 27.1 µM (inactive) | > 100 µM (inactive) | > 100 µM (inactive) | > 100 µM (inactive) | > 100 µM (inactive) | – | > 100 µM (inactive)
CCOP(=O)(Nc1ccc(-c2ccc(N)cc2)cc1)OCC | > 100 µM (inactive) | – | > 100 µM (inactive) | > 100 µM (inactive) | – | > 100 µM (inactive) | – | > 100 µM (inactive) | > 100 µM (inactive) | > 100 µM (inactive) | > 100 | > 100 µM (inactive) | 84.5 µM (inactive) | > 100 µM (inactive) | > 100 µM (inactive) | > 100 µM (inactive) | > 100 µM (inactive) | > 100 µM (inactive) | – | > 100 µM (inactive)
Cc1cccc2c(=O)c3cccc([C@H](C)C(=O)O)c3oc12 | > 100 µM (inactive) | > 100 µM (inactive) | > 100 µM (inactive) | > 100 µM (inactive) | > 100 µM (inactive) | > 100 µM (inactive) | > 100 µM (inactive) | – | > 100 µM (inactive) | > 100 µM (inactive) | > 100 | > 100 µM (inactive) | > 100 µM (inactive) | > 100 µM (inactive) | > 100 µM (inactive) | > 100 µM (inactive) | > 100 µM (inactive) | > 100 µM (inactive) | > 100 µM (inactive) | –
C1=C2C3=[N+](CCCCC3)CC2Cc2ccsc21 (centres undefined) | 21.5 µM (inactive) | 66.1 µM (inactive) | 23.3 µM (inactive) | > 100 µM (inactive) | 67.9 µM (inactive) | 32.8 µM (inactive) | > 100 µM (inactive) | 29.9 µM (inactive) | > 100 µM (inactive) | > 100 µM (inactive) | > 100 | 17.2 µM (inactive) | 44.3 µM (inactive) | 76.7 µM (inactive) | > 100 µM (inactive) | > 100 µM (inactive) | > 100 µM (inactive) | – | – | 50.1 µM (inactive)
NC(CC1=CS(=O)(=O)c2ccc(Cl)cc21)C(=O)O (centres undefined) | > 100 µM (inactive) | – | 54.7 µM (inactive) | > 100 µM (inactive) | > 100 µM (inactive) | > 100 µM (inactive) | > 100 µM (inactive) | 20.6 µM (inactive) | > 100 µM (inactive) | > 100 µM (inactive) | > 100 | > 100 µM (inactive) | 83.6 µM (inactive) | > 100 µM (inactive) | > 100 µM (inactive) | > 100 µM (inactive) | > 100 µM (inactive) | – | > 100 µM (inactive) | 92.3 µM (inactive)
Cc1ccc(/C=N/Nc2cnccn2)s1 | > 100 µM (inactive) | > 100 µM (inactive) | > 100 µM (inactive) | > 100 µM (inactive) | 42.6 µM (inactive) | 47.1 µM (inactive) | 38.7 µM (inactive) | > 100 µM (inactive) | 65.2 µM (inactive) | 65.2 µM (inactive) | > 100 | > 100 µM (inactive) | > 100 µM (inactive) | > 100 µM (inactive) | > 100 µM (inactive) | > 100 µM (inactive) | 99.3 µM (inactive) | > 100 µM (inactive) | – | 17.4 µM (inactive)
O=C(O)[C@@]1(Cc2ccc(O)cc2)C[C@@H]2Cc3ccccc3N2N1 | > 100 µM (inactive) | > 100 µM (inactive) | > 100 µM (inactive) | > 100 µM (inactive) | > 100 µM (inactive) | > 100 µM (inactive) | > 100 µM (inactive) | – | – | > 100 µM (inactive) | > 100 | > 100 µM (inactive) | > 100 µM (inactive) | > 100 µM (inactive) | > 100 µM (inactive) | > 100 µM (inactive) | > 100 µM (inactive) | – | > 100 µM (inactive) | > 100 µM (inactive)
